Results taken from paper PMC9106665 (Communications Biology, 2022).
Numbering of substitutions follows the chain as printed. Values after ≈ are worked out from the molar mass of the structure shown. Like-named read-outs stand apart in the source and are kept apart here.

What was measured:
[1] = biological target: T1, EcDHFR D27E (Escherichia coli, UniProt P0ABQ4, D27E); assay: Steady-state kinetic measurements; format: biochemical; details: varied substrate 1 to 200 µM, 25 °C
T1 construct: using E. coli DHFR template previously synthesized by GeneScript; made in house; host or cells: E. coli BL21(DE3)
T1 sequence (P0ABQ4 1-159 D27E): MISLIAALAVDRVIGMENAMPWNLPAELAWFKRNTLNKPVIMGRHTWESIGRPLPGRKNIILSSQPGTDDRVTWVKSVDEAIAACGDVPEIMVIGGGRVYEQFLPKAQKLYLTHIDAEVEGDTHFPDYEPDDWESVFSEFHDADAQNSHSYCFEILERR
Excerpt: (§1) using a nonlinear regression method in GraphPad Prism 9.2.0 software. To determine the turnover number (kcat) using the same model, the enzyme concentration (based on the protein concentration determined by Bradford assay) was constrained to a constant value and analyzed by the following equation (Eq. 3):3 Y=Et×kcat×X/(Km+X)

[2] = biological target: T2, EcDHFR D27E/L28Q (Escherichia coli, UniProt P0ABQ4, D27E/L28Q); assay: Steady-state kinetic measurements; format: biochemical; details: varied substrate 1 to 200 µM, 25 °C
T2 construct: using E. coli DHFR template previously synthesized by GeneScript; made in house; host or cells: E. coli BL21(DE3)
T2 sequence (P0ABQ4 1-159 D27E/L28Q): T1 sequence (P0ABQ4 1-159 D27E) with L28Q
Excerpt: as §1

[3] = biological target: T3, EcDHFR L28Q (Escherichia coli, UniProt P0ABQ4, L28Q); assay: Steady-state kinetic measurements; format: biochemical; details: varied substrate 1 to 200 µM, 25 °C
T3 construct: using E. coli DHFR template previously synthesized by GeneScript; made in house; host or cells: E. coli BL21(DE3)
T3 sequence (P0ABQ4 1-159 L28Q): T1 sequence (P0ABQ4 1-159 D27E) with E27D, L28Q
Excerpt: as §1

[4] = biological target: T4, DfrA5 (Escherichia coli, UniProt P11731); assay: biochemical; design: species or system E. coli
Method: (§2) The assay was performed at room temperature using the Shimadzu UV/visible spectrophotometer. A standard reaction buffer contained 20 mM TES, pH 7.0, 50 mM KCl, 10 mM β-mercapthoethanol, 0.5 mM EDTA, and 1 mg/ml BSA. […] All measurements were performed in triplicate, from at least two independent experiments.

[5] = tested on: E. coli JW0451 acrB mutant strain; assay: microbe, parasite or virus in culture; format: cell-based; details: for MIC: w/o SMX, 80% inhibition of growth, 18 to 20 hours, 37°C
Method: (§3) Preparation, handling of cultures and the antibiotic susceptibility testing was performed according to CLSI guidelines. […] The compounds at the highest concentrations alone and paired with Sulfamethoxazole (1:19 w/w ratio) were then added to the first well before being serially diluted (2-fold) throughout the plate, leaving the last well with broth only (negative growth control). Next, 50 μl of the inoculum was added to each well.

[6] = tested on: E. coli BL21(DE3) strain overexpressing EcDHFR wt; assay: Antibacterial activity (MIC); format: cell-based; details: Escherichia coli
[7] = tested on: E. coli BL21(DE3) strain overexpressing DfrA1; assay: Antibacterial activity (MIC); format: cell-based; details: Escherichia coli
[8] = tested on: E. coli BL21(DE3) strain overexpressing DfrA5; assay: Antibacterial activity (MIC); format: cell-based; details: Escherichia coli
[9] = biological target: T5, E. coli DHFR (EcDHFR) (Escherichia coli, UniProt P0ABQ4); assay: biochemical
T5 construct: E. coli DHFR gene (UniProtKB:P0ABQ4) and dfrA1 gene (UniProtKB:A4GRC7) were synthesized and cloned in pET-41a (+) vector; made in house; host or cells: E. coli BL21(DE3)
Method: as §2

[10] = biological target: T1, EcDHFR D27E; assay: Enzyme inhibition assay (NADPH oxidation, 340 nm); format: biochemical
Method: as §2

[11] = biological target: T2, EcDHFR D27E/L28Q; assay: Enzyme inhibition assay (NADPH oxidation, 340 nm); format: biochemical
Method: as §2

[12] = biological target: T3, EcDHFR L28Q; assay: Enzyme inhibition assay (NADPH oxidation, 340 nm); format: biochemical
Method: as §2

[13] = tested on: DfrA1 and DfrA5; format: biochemical, E. coli; details: range over DfrA1 and DfrA5
Method: as §2

[14] = biological target: T6, EcDHFR (Escherichia coli, UniProt P0ABQ4); format: binding
T6 construct: E. coli DHFR gene (UniProtKB:P0ABQ4) and dfrA1 gene (UniProtKB:A4GRC7) were synthesized and cloned in pET-41a (+) vector; made in house; host or cells: E. coli BL21(DE3)
Method: (§4) In all, 200 µg of purified enzyme was preincubated for 18 h without and with a 10× molar excess of the ligand(s) (NADPH, TMP or PLA) in 20 mM Hepes 7.5, 100 mM KCl, 5% glycerol, ±2.0% DMSO and 2 mM DTT buffer. […] Changes in intrinsic fluorescence intensity (measured ratio of absorbance at 350 nm over 330 nm) from tryptophan residues were used to calculate derivatives using the evaluation features provided by the Tycho instrument.

[15] = biological target: T7, DfrA1 (Escherichia coli, UniProt P00382); format: binding, E. coli
T7 construct: dfrA1 gene (UniProtKB:A4GRC7) were synthesized and cloned in pET-41a (+) vector; made in house; host or cells: E. coli BL21(DE3)
T7 sequence (P00382 1-157): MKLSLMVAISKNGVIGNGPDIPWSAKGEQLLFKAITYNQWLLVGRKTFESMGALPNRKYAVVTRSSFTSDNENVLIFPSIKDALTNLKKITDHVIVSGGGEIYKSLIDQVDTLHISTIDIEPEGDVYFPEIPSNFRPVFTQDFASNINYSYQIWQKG
Method: as §4

[16] = tested on: E. coli BW25113; assay: microbe, parasite or virus in culture; format: cell-based; details: for MIC: Escherichia coli, 80% inhibition of growth
Method: as §3

[17] = biological target: T4, DfrA5; format: binding, E. coli; design: E. coli dfrA5 gene (UniProtKB:A0A4Y6L037) was synthesized and cloned in pET-24a (+) vector with the same restriction sites; 6xHis tag (C); made in house; host or cells: E. coli BL21(DE3)
Method: as §4, with “instrument. The inflection temperature (Ti) as a marker of protein structural integrity was determined by the first derivative of the signal (ratio of 350 nm/330 nm).” for “instrument.”

[18] = tested on: NC(=O)C1=CN([C@H]2O[C@H](COP(=O)(O)OP(=O)(O)OC[C@H]3O[C@@H](n4cnc5c(N)ncnc54)[C@H](OP(=O)(O)O)[C@@H]3O)[C@@H](O)[C@H]2O)C=CC1; assay: purified protein, by the assay type; format: biochemical, E. coli; details: other: varied substrate 1 to 200 µM, 25 °C
Excerpt: as §1

[19] = tested on: Nc1nc2c(c(=O)[nH]1)N=C(CNc1ccc(C(=O)N[C@@H](CCC(=O)O)C(=O)O)cc1)CN2; assay: purified protein, by the assay type; format: biochemical, E. coli; details: other: varied substrate 1 to 200 µM, 25 °C
Excerpt: as §1

[20] = tested on: NC(=O)C1=CN([C@H]2O[C@H](COP(=O)(O)OP(=O)(O)OC[C@H]3O[C@@H](n4cnc5c(N)ncnc54)[C@H](OP(=O)(O)O)[C@@H]3O)[C@@H](O)[C@H]2O)C=CC1; assay: Steady-state kinetic measurements; format: biochemical, Escherichia coli; details: other: varied substrate 1 to 200 µM, 25 °C
[21] = binary complex, 10× molar excess of ligand

Nc1nc2c(c(=O)[nH]1)N=C(CNc1ccc(C(=O)N[C@@H](CCC(=O)O)C(=O)O)cc1)CN2 [DHF, dihydrofolate]
Km [1]: 15.4 ± 2.1 µM
Km [2]: 56.6 ± 8 µM
Km [3]: 5.2 ± 1 µM

COc1cc(Cc2cnc(N)nc2N)c2c(c1OC)OC(C1CC1)C=C2 (centres unmarked) [Iclaprim, reference compound]
Ki [4]: 99 ± 13.9 nM

CN(Cc1cnc2nc(N)nc(N)c2n1)c1ccc(C(=O)N[C@@H](CCC(=O)O)C(=O)O)cc1 [Methotrexate, reference compound]
Ki [4]: 579 ± 73.8 nM

COc1cc(Cc2cnc(N)nc2N)cc(OC)c1OC [Trimethoprim, reference compound]
MIC ([5]; Escherichia coli): 0.04 µg/mL (≈ 0.138 µM)
MIC ([6]; w/ SMX (1:19)): 0.078 µg/mL (≈ 0.269 µM)
MIC ([6]; w/o SMX): 0.625 µg/mL (≈ 2.15 µM)
MIC ([7]; w/ SMX (1:19)): > 20 µg/mL
MIC ([7]; w/o SMX): > 20 µg/mL
MIC ([8]; w/ SMX (1:19)): > 20 µg/mL
MIC ([8]; w/o SMX): > 20 µg/mL

CCc1nc(N)nc(N)c1C#CC(C)c1cc2c(c(-c3ccc(CN)cc3)c1)OCO2 (centres unmarked) [UCP1223]
Ki [9]: 1.58 ± 0.26 nM
Ki [4]: 16.8 ± 0.29 nM
Ki [10]: 12.8 ± 0.56 nM
fold increase in Ki over EcDHFR ([10]; D27E substitution): 8 fold
Ki [11]: 187 ± 5.5 nM
fold loss in affinities relative to EcDHFR ([11]; combinatorial mutant D27E/L28Q): 118 fold
Ki [12]: 7.37 ± 0.72 nM
fold loss of activity against DfrA1 and DfrA5 compared to EcDHFR [13]: 10–14 fold
Ti 1 [14, 21]: 68.5 ± 1.4 °C
Ti 2 [14, 21]: 80.8 ± 0.2 °C
Δ1 (Ti shift vs apo) [14, 21]: 18.9 °C
Δ2 (Ti shift vs apo) [14, 21]: 20.6 °C
Ti 1 ([14]; ternary complex, +NADPH): 78.9 ± 2.4 °C
Ti 2 ([14]; ternary complex, +NADPH): 88.3 ± 0.5 °C
Δ1 (Ti shift vs apo) ([14]; ternary complex, +NADPH): 29.3 °C
Ti [15, 21]: 58.5 ± 0.1 °C
Δ (Ti shift vs apo) [15, 21]: 8.7 °C
Ti ([15]; ternary complex, +NADPH): 71.2 ± 3.1 °C
Fold difference in MIC ([16]; BW25113 w/o SMX vs w/ SMX): 32
MIC ([16]; BW25113, w/ SMX (1:19)): 0.625 µg/mL (≈ 1.5 µM)
MIC ([16]; BW25113, w/o SMX, 18 to 20 hours, 37°C): 20 µg/mL (≈ 48.1 µM)
Fold difference in MIC ([5]; BW25113 w/o SMX vs JW0451 w/o SMX): 32
MIC ([5]; Escherichia coli): 0.625 µg/mL (≈ 1.5 µM)
MIC [5]: 1.25 µg/mL (≈ 3.01 µM)
MIC ([6]; w/ SMX (1:19)): 1.25 µg/mL (≈ 3.01 µM)
MIC ([6]; w/o SMX): 20 µg/mL (≈ 48.1 µM)
MIC ([7]; w/ SMX (1:19)): 20 µg/mL (≈ 48.1 µM)
MIC ([7]; w/o SMX): > 20 µg/mL
MIC ([8]; w/ SMX (1:19)): 10 µg/mL (≈ 24.1 µM)
MIC ([8]; w/o SMX): > 20 µg/mL
Ti [17, 21]: 67.3 ± 1.0 °C
Δ (Ti shift vs apo) [17, 21]: 1.0 °C
Ti ([17]; ternary complex, +NADPH): 88.5 ± 0.2 °C

DfrA5 (Escherichia coli)
Km [18]: 19.9 ± 6.1 µM
kcat [18]: 34.3 ± 3.3 s⁻¹
kcat/Km [18]: 1.7e+06 ± 500000 M⁻¹ s⁻¹
Km [19]: 24.2 ± 6.6 µM
kcat [19]: 31.4 ± 3.2 s⁻¹
kcat/Km [19]: 1.3e+06 ± 400000 M⁻¹ s⁻¹

EcDHFR (Escherichia coli K-12)
Km [20]: 5.8 ± 0.8 µM
kcat/Km [20]: 600000 ± 70000 M⁻¹ s⁻¹
